The target in test [1] is CSF1R phosphorylation in THP-1 cells (Homo sapiens (Human), UniProt P07333). The test can be described thus: Detection of CSF1R phosphorylation activity at cell level (THP-1, M-CSF stimulated, ELISA). Conditions: p-CSF1R ELISA, compound 60 min, 300 ng/mL M-CSF 1 min. The test is classed as cell-based. The procedure: Detection of CSF1R Phosphorylation Activity at Cell Level
THP-1 (ATCC), human acute monocytic leukemia cells. The cells were cultured in an RPMI 1640 medium containing 10% FBS.
(§1) 2. Reagents and instruments
• Human phosphorylation-CSF1R ELISA kit: R&D, #DYC3268-2; • RPMI 1640 culture solution: GIBCO, 910491; • Human M-CSF recombinant cytokine: R&D, 9216-MC-500; • Cell lysis buffer: Cell Signal, 99803S; • 1×PBS buffer (1 L): 8.0 g of NaCl, 0.2 g of KCl, 3.58 g of Na2HPO4-12H2O, 0.24 g of KH2PO4 were dissolved in 1 L of dd H2O, and the pH was adjusted to 7.4; • Blocking solution: PBS buffer containing 1% BSA; • PBST washing liquid: PBS buffer containing 0.05% Tween-20; • Chromogenic substrate: R&D, #DY999; • 2N H2SO4; • Microwell plate reader: Labsystems Multiskan K3: Thermo; Envision: Perkin Elmer; • ELISA plate: Corning, #9018; • Cell culture plate: Facol, #353027. 3. Treatment of cells and preparation of lysis buffer
THP-1 cells were resuspended in RPMI-1640 culture solution containing 2% FBS, and the culture was added to a 96-well plate at a density of 5×10^4/well, 50 μL/well, and cultured in a cell incubator at 5% CO2 and 37° C. overnight; The test compound was diluted with a serum-free RPMI-1640 medium to 3, 1.1, 0.37, 0.12, 0.04, 0.014, 0.005 and 0.002 μM, and the concentration of DMSO was 5%. 5 μL of the diluted compound was added to the 50 μL cell culture system, the culture was cultured in a 5% CO2, 37° C. cell incubator for 60 min, 300 ng/mL of M-CSF was added to the cells, and the mixture was stimulated in the 37° C. cell incubator for 1 min, added 50 μL of cell lysis buffer, and stored in a refrigerator at −80° C.
100 μL/well of the p-CSF1R capture antibody diluted to 0.8 μg/mL with PBS was added to the ELISA plate, and the plate was coated on a shaker at room temperature overnight. The culture was washed with PBST, and then added blocking solution and incubated at room temperature for 2 h. The culture was washed with PBST, added 90 μL of cell lysis buffer, and incubated on a shaker at 25° C. for 2 h. The plate was washed with PBST three times, added 100 μL of anti-p-tyrosine-HRP detection antibody diluted with 0.1% PBS-BSA diluent, and incubated on a shaker at 25° C. for 2 h. The plate was washed with PBST washing liquid, added 100 μL of chromogenic substrate and incubated at room temperature for 10-20 min. The reaction was stopped by adding 50 μL of 2N H2SO4. The optical density signal (450/570 nm) of each well was detected in Labsystems Multiskan K3 or Envision.
wherein • Drug-treated well read-out: indicating the optical density signal of a cell well with the test compound treatment. • Background read-out: indicating the optical density signal of a well without cells but with cell lysis buffer. • Cell well read-out: indicating the optical density signal of a cell well not treated with the compound. 6. Calculation of IC50: obtained by using XL-Fit 5.3 software. 7. Test results

Another test has as its system Ba/F3^BCR-FMS-11 cells. The test can be described thus: Cell proliferation experiment (Ba/F3^BCR-FMS-11, cckit-8). To be noted: Ba/F3^BCR-FMS-11 cell proliferation. The test is classed as cell-based, mouse. The procedure: Cell Proliferation Experiment
Ba/F3^BCR-FMS-11, mouse primary B lymphocytes stably expressing the BCR-FMS fusion gene. The cells were cultured in an RPMI 1640 medium containing 10% FBS.
as §1
• cckit-8 kit: Dojindo, 9 CK04; • Envision: Perkin Elmer; • Cell culture plate: Facol, 9353027. 3. Experimental steps
The BCR-FMS fusion gene was transfected into Ba/F3 cells, and the cell line Ba/F3^BCR-FMS-11 that stably expresses BCR-FMS and grows depending on CSF-1R was screened. Ba/F3^BCR-FMS-11 cell proliferation experiments is completed by using the Cell Counting kit cckit-8 in a 96-well plate. In a 96-well plate, 5000/well of Ba/F3^BCR-FMS-11 cells were inoculated at 100 μL/well. […] 10 μL of the compound dilutions with the above 8 concentrations were added to the culture cell wells. The culture was incubated in a 37° C. and 5% CO2 cell incubator for 72 hours. 10 μL of Cell Counting kit cckit-8 detection reagent was added to each well, and incubated at 37° C. and 5% CO2 in a cell incubator for another 1 h. The optical density absorption value at 450 nm of each well was detected by using Perkin Elmer Envision instrument.
wherein • Drug-treated well read-out: indicating the optical density signal of a cell well with the test compound treatment. • Cell well read-out: indicating the optical density signal of a cell well not treated with the test compound (only 0.5% DMSO). • Background read-out: indicating the optical density signal of a well with the cell medium. 5. Calculation of IC50: obtained by using XL-Fit 5.3 software. 6. Test results

For test [2], the target named is Recombinant human CSF1R kinase (Homo sapiens (Human), UniProt P07333). It is filed as biochemical. Conditions: Z-LYTE Tyr 1 peptide substrate.
Experimental: Measurement of CSF1R Kinase Activity at Molecular Level
1. Reagents and materials:
• Z-LYTE™ Tyr 1 peptide substrate: Invitrogen, PV3190; • 5× kinase buffer: Invitrogen, PV3189; • 10 mM ATP: Invitrogen, PV3227; • Development reagent B: Invitrogen, PV3295; • Development buffer: Invitrogen, P3127; • Stopping solution: Invitrogen, P3094; • Recombinant human CSF1R kinase: Invitrogen, PR4598A; • 384 well plate, black: Corning, 3575; Envision: Perkin Elmer. 2. Preparation of reaction solutions
1) 1.33× kinase buffer: 5× kinase buffer was diluted to a 1.33× kinase buffer with ddH2O.
2) Dilution of a 4× test compound: The test compound was diluted in gradient to 4-fold the reaction concentration and the concentration of DMSO was kept at 8%. The final concentration of the compound in reaction was: 1, 0.33, 0.11, 0.037, 0.012, 0.004, 0.0014, 0.00046 μM, and the final concentration of DMSO was 2%.
3) A mixture of kinase/peptide substrate: In 1.33× kinase buffer, the kinase and Z-LYTE™ Tyr 1 peptide substrate were diluted to 0.12 μg/mL and 4 μM, respectively, to prepare a mixture of kinase/peptide substrate. The mixture was mixed gently with a pipette.
4) A phosphorylated peptide substrate solution (PP solution): 0.4 μL of Z-LYTE™ Tyr1 phosphorylated peptide substrate was added to 99.6 μL of 1.33× kinase buffer.
5) ATP solution: 10 mM of ATP was diluted to 760 μM with 1.33× kinase buffer to prepare ATP solution.
6) Development solution: Development reagent B was diluted with Development buffer at a ratio of 1:200.
1) Kinase reaction (10 μL system)
2.5 μL of 4× test compound was added to each reaction well of the 384 plate, and the corresponding volume of 8% DMSO was added to the control well. The plate was placed on ice. 5 μL of a mixture of kinase/peptide substrate, 2.5 μL of kinase buffer and ATP solution were successively added to each well. Three control groups were set up: Group C1 contains only kinase buffer, group C2 contains the mixture of kinase/peptide substrate, kinase buffer and ATP, and group C3 contains 5 μL of PP solution. After adding the reaction components, the 384-well plate was sealed and incubated at 25-30° C. for 1 h in dark.
5 μL of Development solution was added to each well, sealed and incubated at 25-30° C. for another 1 h in dark.
3) Reaction stopping and plate reading
5 μL of stopping solution was added to each well. The Coumarin value (excitation at 400 nm, emission at 445 nm) and Fluorescein value (excitation at 400 nm, emission at 520 nm) were measured, respectively.
ER (emission ratio): Coumarin emission read-out (445 nm)/Fluorescein emission read-out (520 nm); • C3 445 nm: 100% phosphorylated Coumarin emission read-out; • C3 520 nm: 100% phosphorylated Fluorescein emission read-out; • C1 445 nm: 0% phosphorylated Coumarin emission read-out; • C1 520 nm: 0% phosphorylated Fluorescein emission read-out. Inhibition rate % (IR)=[1−% phosphorylation ratetest sample/100% phosphorylation ratecontrol]×100%
% phosphorylation ratetest sample: phosphorylation rate of the test compound; • 100% phosphorylation ratecontrol: phosphorylation rate of C3 control group.
5. IC50 values: calculated by using software XL-Fit™ (version 5.3) supplied by ID Business Solutions (Guildford, UK), which is an additional software to Microsoft Excel.

SMILES strings stand for the structures.

Chain of CSF1R phosphorylation in THP-1 cells (P07333 20-972): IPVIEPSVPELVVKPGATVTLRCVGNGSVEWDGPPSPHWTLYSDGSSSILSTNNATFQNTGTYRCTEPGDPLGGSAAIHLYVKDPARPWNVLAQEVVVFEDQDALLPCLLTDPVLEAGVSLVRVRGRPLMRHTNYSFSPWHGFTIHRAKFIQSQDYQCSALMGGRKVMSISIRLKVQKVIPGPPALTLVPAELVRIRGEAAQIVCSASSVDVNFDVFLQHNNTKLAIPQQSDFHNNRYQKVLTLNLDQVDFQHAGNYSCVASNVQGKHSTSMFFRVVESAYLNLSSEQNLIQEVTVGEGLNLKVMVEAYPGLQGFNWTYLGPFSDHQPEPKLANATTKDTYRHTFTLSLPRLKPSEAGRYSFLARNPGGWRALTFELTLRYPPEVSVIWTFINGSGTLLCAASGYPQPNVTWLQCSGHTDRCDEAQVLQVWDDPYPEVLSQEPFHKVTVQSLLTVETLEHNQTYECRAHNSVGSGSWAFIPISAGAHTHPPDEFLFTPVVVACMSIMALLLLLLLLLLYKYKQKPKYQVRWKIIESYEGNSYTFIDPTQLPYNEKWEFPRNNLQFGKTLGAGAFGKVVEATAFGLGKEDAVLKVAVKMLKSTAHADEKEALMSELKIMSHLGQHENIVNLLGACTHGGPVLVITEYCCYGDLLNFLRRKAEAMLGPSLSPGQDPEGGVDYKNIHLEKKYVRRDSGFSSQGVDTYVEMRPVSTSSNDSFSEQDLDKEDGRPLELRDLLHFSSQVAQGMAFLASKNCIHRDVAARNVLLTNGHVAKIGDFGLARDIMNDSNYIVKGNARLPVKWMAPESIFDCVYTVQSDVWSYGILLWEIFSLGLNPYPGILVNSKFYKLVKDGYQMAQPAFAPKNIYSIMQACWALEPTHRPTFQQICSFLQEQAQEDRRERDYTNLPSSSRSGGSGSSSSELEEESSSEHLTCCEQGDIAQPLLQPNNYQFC
Chain of Recombinant human CSF1R kinase (P07333 20-972): as above

As a reminder, the IC50 is the point on the concentration scale where inhibition reaches its midpoint. With `Cn1ncc(-c2cc(Oc3ccc(NC(=O)c4cccn(C)c4=O)nc3)ccn2)n1` [Compound 99, 1-methyl-N-(5-((2-(2-methyl-2H-1,2,3-triazol-4-yl)pyridin-4-yl)oxy)pyridin-2-yl)-2-oxo-1,2-dihydropyridine-3-carboxamide], the IC50 in test [1] is 748 nM; with Ba/F3^BCR-FMS-11 cells (Mus musculus, 72 h), 534 nM; in test [2], 70 nM.

On to `Cc1ncc(C(=O)Nc2ccc(Oc3ccnc(-c4cnn(C)c4)c3)cn2)c(=O)n1C` [Compound 8, 1,2-dimethyl-N-(5-((2-(1-methyl-1H-pyrazol-4-yl)pyridin-4-yl)oxy)pyridin-2-yl)-6-oxo-1,6-dihydropyrimidine-5-carboxamide], for which the IC50 in test [1] came out at 4 nM; with Ba/F3^BCR-FMS-11 cells (Mus musculus, 72 h), 7 nM; in test [2] it was 4 nM.

In the case of `CC(C)n1cccc(C(=O)Nc2ccc(Oc3ccnc(-c4ccn(C)c4)c3)cn2)c1=O` [Compound 125], the IC50 in test [1] turned out to be 24 nM; in the test on Ba/F3^BCR-FMS-11 cells (Mus musculus, 72 h), 17 nM; in test [2], 7 nM.

Consider `Cc1ncc(C(=O)Nc2ccc(Oc3ccnc(Nc4cnn(C)c4)c3)cn2)c(=O)n1C` [Compound 63], for which the IC50 came out at 5 nM in test [1]; 8 nM with Ba/F3^BCR-FMS-11 cells (Mus musculus, 72 h); 9 nM in test [2].

In the case of `Cc1cc(C(=O)Nc2ccc(Oc3ccnc(-c4cnn(C)c4)c3)cn2)c(=O)n(C)c1` [Compound 118], the IC50 in test [1] came out at 21 nM; in the test on Ba/F3^BCR-FMS-11 cells (Mus musculus, 72 h), 6 nM; in test [2], 19 nM.

As to `Cn1cnc(-c2cc(Oc3cnc(NC(=O)c4cccn(C)c4=O)c(F)c3)ccn2)c1` [Compound 21], the IC50 in test [1] was determined as 43 nM; in the test with Ba/F3^BCR-FMS-11 cells (Mus musculus, 72 h), 73 nM; in test [2], 28 nM.

`CC(C)n1cccc(C(=O)Nc2ccc(Oc3ccnc(-c4cnn(C)c4)n3)cn2)c1=O` [Compound 6, 1-isopropyl-N-(5-((2-(1-methyl-1H-pyrazol-4-yl)pyrimidin-4-yl)oxy)pyridin-2-yl)-2-oxo-1,2-dihydropyridine-3-carboxamide]: the IC50 in test [1] was found to be 21 nM; in the test on Ba/F3^BCR-FMS-11 cells (Mus musculus, 72 h) it was 15 nM; in test [2], 7 nM.

With `Cc1cc(Nc2cc(Oc3ccc(NC(=O)c4cnc(C)n(C)c4=O)nc3)ccn2)n[nH]1` [Compound 111, 1,2-dimethyl-N-(5-((2-((5-methyl-1H-pyrazol-3-yl)amino)pyridin-4-yl)oxy)pyridin-2-yl)-6-oxo-1,6-dihydropyrimidine-5-carboxamide], the IC50 in test [1] was determined as 10 nM; in the test on Ba/F3^BCR-FMS-11 cells (Mus musculus, 72 h), 8 nM; in test [2], 19 nM.

On to `[2H]C([2H])([2H])n1cc(-c2cc(Oc3ccc(NC(=O)c4cnc(C)n(C)c4=O)nc3)ccn2)cn1` [Compound 129, 1,2-dimethyl-N-(5-((2-(1-(methyl-d3)-1H-pyrazol-4-yl)pyridin-4-yl)oxy)pyridin-2-yl)-6-oxo-1,6-dihydropyrimidine-5-carboxamide], for which the half-maximal inhibitory concentration (IC50) in test [1] is 7 nM; in the test with Ba/F3^BCR-FMS-11 cells (Mus musculus, 72 hours), 2 nM; in test [2] it was 4 nM.

For the molecule `Cc1ncc(C(=O)Nc2ccc(Oc3ccnc(-c4cnn(C)c4)n3)cn2)c(=O)n1C` [Compound 7, 1,2-dimethyl-N-(5-((2-(1-methyl-1H-pyrazol-4-yl)pyrimidin-4-yl)oxy)pyridin-2-yl)-6-oxo-1,6-dihydropyrimidine-5-carboxamide], the IC50 in test [1] was 25 nM; in the test on Ba/F3^BCR-FMS-11 cells (Mus musculus, 72 h), 39 nM; in test [2] it was 67 nM.

With `Cc1cccc(Nc2cc(Oc3ccc(NC(=O)c4cnc(C)n(C)c4=O)nc3)ccn2)n1` [Compound 36], the IC50 amounted to 8 nM in test [1], 23 nM with Ba/F3^BCR-FMS-11 cells (72 hours) and 28 nM in test [2].

Regarding `CCn1cc(-c2cc(Oc3ccc(NC(=O)c4cnc(C)n(C)c4=O)nc3)ccn2)cn1` [Compound 38], the IC50 in test [1] stood at 7 nM; in the test on Ba/F3^BCR-FMS-11 cells (Mus musculus, 72 h), 17 nM; in test [2], 12 nM.

In the case of `Cc1ncc(C(=O)Nc2ccc(Oc3ccnc(-c4cn(C)cn4)c3)cn2)c(=O)n1C` [Compound 30], the IC50 in test [1] was 14 nM; with Ba/F3^BCR-FMS-11 cells (Mus musculus, 72 h), 24 nM; in test [2] it was 35 nM.

With `CC(C)n1cccc(C(=O)Nc2ccc(Oc3ccnc(-c4cn(C)nn4)c3)cn2)c1=O` [Compound 103], the IC50 in test [1] was 7 nM; in the test on Ba/F3^BCR-FMS-11 cells (Mus musculus, 72 h), 9 nM; in test [2] it was 6 nM.

On to `Cc1ncn(C)c(=O)c1C(=O)Nc1ccc(Oc2ccnc(-c3cnn(C)c3)c2)cn1` [Compound 13], for which the IC50 in test [1] was 42 nM; in the test on Ba/F3^BCR-FMS-11 cells (Mus musculus, 72 h), 231 nM; in test [2], 91 nM.

For the molecule `Cc1ncc(C(=O)Nc2ccc(Oc3ccnc(Nc4ccnn4C)c3)cn2)c(=O)n1C` [Compound 43], the IC50 in test [1] is 6 nM; in the test on Ba/F3^BCR-FMS-11 cells (Mus musculus, 72 h) it was 5 nM; in test [2], 6 nM.

Turning to `CC(C)n1cccc(C(=O)Nc2ccc(Oc3ccnc(-c4cn(C)cn4)c3)cn2)c1=O` [Compound 100], the IC50 was found to be 15 nM in test [1]; 15 nM in the test on Ba/F3^BCR-FMS-11 cells (Mus musculus, 72 h); 8 nM in test [2].

In the case of `O=C(Nc1ccc(Oc2ccnc(Nc3ccn(C(F)F)n3)c2)cn1)c1cnc2n(c1=O)CCC2` [Compound 69], the IC50 was determined as 3 nM in test [1]; 4 nM in the test on Ba/F3^BCR-FMS-11 cells (Mus musculus, 72 h); 3 nM in test [2].

For `CC(C)n1cccc(C(=O)Nc2ccc(Oc3ccnc(-c4ncn(C)n4)c3)cn2)c1=O` [Compound 15], the figures for the IC50 (in test [1]; in the test with Ba/F3^BCR-FMS-11 cells (72 hours); in test [2]) were 215 nM, 493 nM and 34 nM, respectively.

As to `Cc1c(F)cc(C(=O)Nc2ccc(Oc3ccnc(Nc4cnn(C)c4)c3)cn2)c(=O)n1C` [Compound 75], the IC50 was 14 nM in test [1]; 7 nM with Ba/F3^BCR-FMS-11 cells (Mus musculus, 72 h); 8 nM in test [2].

Turning to `Cn1cc(-c2cc(Oc3ccc(NC(=O)c4cccn(CCO)c4=O)nc3)ccn2)cn1` [Compound 84], the IC50 came to 10 nM in test [1]; 8 nM in the test with Ba/F3^BCR-FMS-11 cells (Mus musculus, 72 h); 6 nM in test [2].

For the molecule `Cn1cnc(-c2cc(Oc3ccc(NC(=O)c4cccn(C)c4=O)nc3)ccn2)c1` [Compound 107, 1-methyl-N-(5-((2-(1-methyl-1H-imidazol-4-yl)pyridin-4-yl)oxy)pyridin-2-yl)-2-oxo-1,2-dihydropyridine-3-carboxamide], the IC50 in test [1] was found to be 17 nM; with Ba/F3^BCR-FMS-11 cells (Mus musculus, 72 h), 35 nM; in test [2], 9 nM.

Consider `Cc1ncc(C(=O)Nc2ccc(Oc3ccnc(-c4cccnc4)c3)cn2)c(=O)n1C` [Compound 33], for which the IC50 in test [1] turned out to be 15 nM; in the test on Ba/F3^BCR-FMS-11 cells (Mus musculus, 72 h) it was 58 nM; in test [2], 62 nM.

Turning to `CC(C)c1ncc(C(=O)Nc2ccc(Oc3ccnc(-c4cnn(C)c4)c3)cn2)c(=O)n1C` [Compound 73], the IC50 is 31 nM in test [1]; 17 nM in the test with Ba/F3^BCR-FMS-11 cells (Mus musculus, 72 h); 11 nM in test [2].

These data come from patent US12435062B2, “Amide compounds and uses thereof” (HUTCHISON MEDIPHARMA LIMITED, priority 2020, dated 2025).
